In data set [1] the test system is primary peritoneal macrophages. As to conditions: cited from earlier work.
Data set [2] deals with LPS-challenged macrophages. As to conditions: pre-incubated 6 h with 0 to 50 μM, then LPS 24 h; cited from earlier work.
For data set [3], the system named is LPS-induced ARDS. As to conditions: cited from earlier work.
The subject of data set [4] is lipopolysaccharide-induced inflammatory reactions. As to conditions: cited from earlier work.
Data set [5] relates to sepsis induction with live Escherichia coli. As to conditions: cited from earlier work; for concentration of IL-1a: controls 1187.0±278.64, P<0.05.
Data set [6] deals with lipopolysaccharide-activated macrophages. As to conditions: cited from earlier work.
The next data set deals with macrophage foam cells. As to conditions: pretreatment; cited from earlier work.
The conditions of data set [7]: 10 mg/kg intravenously then 10 mg/kg/h infusion; cited from earlier work.
For data set [8] the following is noted: cited from earlier work.
The conditions of data set [9]: 10 mg/kg intraperitoneally at 1 and 6 h after CL2P and every 12 h; 18 h; cited from earlier work.
The conditions of data set [10]: 10 mg/kg intraperitoneally; 72 h after CL2P; cited from earlier work.
The conditions of data set [11]: cited from earlier work. The source holds these as a separate data set.
Data set [12] deals with LPS-induced ARDS. As to conditions: cited from earlier work. This is another data set of the same source.
For the next data set, the system named is NK cell. Description: Pterostilbene given as nanostilbene to cancer patients: NK cell activity and interferon gamma. The class given is in vivo, human. As to conditions: administered in the form of nanostilbene in cancer patients.
The conditions of data set [13]: animal studies; cited from earlier work.
The subject of data set [14] is interleukin-I, interleukin-6, interleukin-8, TNF-alpha. As to conditions: cited from earlier work.
Data set [15] deals with human umbilical vein VECs (HUVECs). As to conditions: cited from earlier work.
Data set [16] relates to endothelium of atherosclerotic plaque. As to conditions: apoE(−/−) mice, injection; cited from earlier work.
[17] abbreviates: 50 mg/kg, LPS 5 mg/kg 3 days later.
The mark [18] stands for this setting: lung, serum, and bronchoalveolar lavage fluid.

Read-outs that look alike come from different tables or passages of the source.

In the case of `C[S+]([O-])CCCCN=C=S` (stereo not shown) [sulforaphane, 1-isothiocyanato-4-(methylsulfinyl)-butane], the HO-1 expression entry in [1] (LPS-stimulated Nrf2 (+/+) primary peritoneal macrophages) is recorded as “significantly augmented”. Further, the “LPS-stimulated mRNA expression, protein expression and production of TNF-alpha, IL-1beta, COX-2 and iNOS” value in [1] (Nrf2 (+/+) primary peritoneal macrophages, pretreatment) is “potently inhibited”. For the same compound, the anti-inflammatory effect result in data set [1] (Nrf2 (−/−) primary peritoneal macrophages) is “attenuated”. In addition, in data set [2], the “expression of NO and cytokines” value is listed as “able to prevent”. Besides, in the data set on LPS-induced ARDS [3] (50 mg/kg, ELISA), the “serum levels of interleukin-6 (IL-6)” value is reported as “significantly decreased” and the “serum levels of tumor necrosis factor-a (TNF-a)” value was “significantly decreased”. Besides, in the data set on LPS-induced ARDS [3] (setting [17]), the “lactate dehydrogenase (LDH) activity” value was “significantly decreased” and the “wet-to-dry ratio of the lungs” value is given as “significantly decreased”. In the data set on LPS-induced ARDS [3] (50 mg/kg), the “inducible nitric oxide synthase (iNOS) activity” value is listed as “significantly inhibited” and the “prostaglandin E2 (PGE2) production” value was “significantly inhibited”. Moreover, the “Nrf2/antioxidant response element (ARE) pathway” value in the data set on LPS-induced ARDS [3] (pre-treatment) is given as “activated”. For the same compound, in the data set with LPS-induced ARDS [3] (western blot), the “cyclooxygenase-2 (COX-2) protein expression” value was “significantly inhibited” and the “matrix metalloproteinase-9 (MMP-9) protein expression” value is “significantly inhibited”.
Turning to `CC1=CC(=O)C(C(C)C)=CC1=O` [thymoquinone], in data set [4], the lipopolysaccharide-induced inflammatory reactions entry is recorded as “suppressed effectively”. Further, in data set [4] (marker of inflammation), the “concentration of nitric oxide” value was “reduced significantly”. Besides, the “concentration of IL-1a” value in data set [5] (0.75 mg/kg dose) is 310.8 ± 70.93 pg/mL. The IL-10 levels in [5] (0.75 mg/kg, controls 5505.2±333.96, P<0.01) was 2885.0 ± 553.98 pg/mL. The “concentration of IL-1a” value in data set [5] (1 mg/kg group) is 428.3 ± 71.32 pg/mL. In addition, the “levels of IL-2” value in data set [5] (P value 0.0851) was “relatively lower”. Besides, the “levels of TNF-a” value in [5] (P value 0.1817) is on record as “relatively lower”. Further, in [5] (mice, sepsis models), the reduced mortality is on record as 80-90%; the “renal and hepatic biomarker profiles” value is on record as “improved”.
As to Epigallocatechin-3-Gallate [EGCG], the NO production entry in [6] (cells cotreated with EGCG and LPS) is listed as “Inhibition”. In addition, in data set [6], the “disappearance of inhibitor kappaB from cytosolic fraction” value was “blocked”. Also, the “activation of nuclear factor-kappaB” value in data set [6] (electrophoretic mobility shift assay) is recorded as “blocked”. The “TNF-a-induced downregulation of ABCA1 and decrease in cholesterol efflux to apoA1” value in the data set with macrophage foam cells is reported as “attenuated”. In addition, in data set [7], the myeloperoxidase activity result is “reduced”, the myocardial damage result is recorded as “reduced”, the “plasma IL-6 levels” value is on record as “decreased” and the “plasma creatine phosphokinase levels” value is “decreased”. Further, the colonic tissue erosion result in data set [8] (50 and 100 mg/kg/day) is on record as “attenuation”. For the same compound, in data set [8] (mouse, in vivo), the “HIF-1a and STAT3 protein expression in the colon” value is on record as “decreasing”; the “plasma levels of IL-10” value is “increasing”; the “plasma levels of TGF-1” value was “increasing”. Further, in [8] (plasma), the “release of IL-6” value is on record as “reduce” and the “release of IL-17” value is reported as “reduce”. The “hypotension (mean arterial blood pressure)” value in data set [9] is “significantly improved”. In addition, the survival result in [10] was “significantly improved”. Also, the lethal sepsis entry in [11] (first dose given 24 hours after cecal ligation and puncture) was “rescued”. For the same compound, in data set [11] (intraperitoneal administration), the lethal endotoxemia entry was “protected”. Also, in data set [11] (mouse, in vivo), the “systemic accumulation of HMGB1, IL-6 and KC” value is on record as “attenuation”. Also, the “LPS-induced ARDS” value in the data set on LPS-induced ARDS [12] (10 mg/kg ip 1 h before LPS 10 mg/kg ip) is “attenuated”. Moreover, in the data set with LPS-induced ARDS [12] (10 mg/kg ip), the “changes in blood gases” value is recorded as “decreased”, the histological lesions result is “reduced” and the “myeloperoxidase (MPO) activity” value is reported as “reduced”. In addition, in the data set with LPS-induced ARDS [12] (lung tissue), the “expression of IKB-a” value is listed as “increased”; the “expression of TLR-4, MyD88, TRIP, and p-p65” value is given as “alleviated”; the “expression of p65” value was “no influence”. Besides, in the data set with LPS-induced ARDS [12] (setting [18]), the “expression of IL-6” value is on record as “significantly decreased”, the “expression of interleukin (IL)-1′” value was “significantly decreased” and the “expression of tumor necrosis factor (TNF)-a” value is recorded as “significantly decreased”.
One may read the bioavailability as dose-corrected exposure relative to a reference, in per cent. In the case of “trans-3,5-dimethoxy-4-hydroxystilbene [pterostilbene]”, in the data set on NK cell, the NK cell activity entry is given as “increased” and the interferon gamma production entry was “increased”. Besides, in data set [13], the bioavailability is on record as 80%. The “inflammatory cytokines associated with ARDS (interleukin-I, interleukin-6, interleukin-8, TNF-alpha)” value in data set [14] is given as “inhibit inflammatory cytokines”. The “oxLDL-induced cell shrinkage, chromatin condensation, nuclear fragmentation, and cell apoptosis” value in data set [15] (HUVECs, oxLDL 200 μg/ml) is given as “protected against such injuries”. In [15] (in vitro and in vivo), the “expression of lectin-like oxLDL receptor-I (LOX-1)” value was “inhibited”. Moreover, the “number of TUNEL-positive cells in the endothelium of atherosclerotic plaque” value in data set [16] is given as “strongly decreased”.
